Values quoted from earlier work as cited in patent US20240226128A1, “NOVEL COMPOUNDS WITH DUAL INHIBITION ACTIVITY AGAINST SARS-COV-2 CRITICAL ENZYMES RDRP, MPRO AND HUMAN TMPRSS2” (priority 2022, published 2024).

Test system: COVID-19
Conditions: high-risk patient including different variants; cited from earlier work

CC(C)C(=O)OC[C@H]1O[C@@H](n2ccc(NO)nc2=O)[C@H](O)[C@@H]1O [Molnupiravir]
reduced risk of COVID-19 death: 50%
